Measurements: patent US20180353429A1, “PRODUCT COMPRISING HYDROLIZED COLLAGEN AND AT LEAST ONE AMORPHOUS MICRONIZED DRUG, PROCESS FOR THE PREPARATION THEREOF AND RELATED USES IN MEDICAL FIELD” (S.B.M. S.r.l., priority 2015, published 2018)
Where two headings read alike, the source gives them in different places. Values belong to the compound of their own block, whether it stands above or below them.

How the values were obtained:
[1] = amorphized by co-grinding with β-cyclodextrin or other polymers; cited from earlier work
thromboxane B2 = test: Plasma thromboxane B2 / urinary thromboxane metabolites after ASA in healthy volunteers; type: in vivo; conditions: plasma and urine ASA and urinary thromboxane metabolites, 7 days
Procedure: This effect was accompanied by a considerable therapeutic effectiveness, given that the plasma peak of thromboxane B2, a biomarker of the anti-aggregation effectiveness of ASA, came 1.5 hours earlier than with the crystalline form of the drug (FIG. 4). […] This fact was confirmed by examining both the plasma and urine concentrations of ASA and of the urinary metabolites of thromboxane after 7 days of administration (FIG. 5).

[2] = Pharmacokinetics of ASA given orally or sublingually in healthy volunteers (plasma ASA by LC-MS); type: in vivo; conditions: human, tablet; for AUC(0-t): read-out: AUC (0-24 h)
Procedure: The pharmaceutical composition obtained by co-grinding a micronized drug with gelatine was tested in healthy volunteers in order to verify whether the product, in its amorphized form, brought advantages from the standpoint of bioavailability and an enhanced clinical effectiveness associated with an improvement in the safety profile. These tests confirmed that the co-grinding process and simultaneous amorphization of ASA with collagen enables a better absorption of the drug without compromising its effectiveness.
In particular, the administration of the pharmaceutical composition of ASA+collagen after co-grinding in tablet form at doses of 50 and 100 mg given sublingually and orally in groups of 20 healthy volunteers brought about an increase in the plasma concentrations of ASA, determined using the LC-MS method, compared to the administration of equivalent doses of ASA in crystalline form administered sublingually or orally.

gastric mucosa = test: Gastroerosive activity of oral ASA on the gastric mucosa of Wistar rats (ulcer index, histopathology); type: in vivo; conditions: ASA 400 mg/Kg oral
Procedure: In view of this, it was decided to test the effect of the micronization of ASA (400 mg/Kg) and co-grinding thereof with collagen through oral administration on the mucosa of Wistar rats weighing 210 g and compare it with the effects of the administration of ASA (400 mg/Kg) in its non-micronized form.
In particular, a calculation was made of the effect of ASA on the so-called “ulcer score”, according to a method that differentiates the damage due to the acute administration of high doses of ASA given orally into classes of severity which range from the absence of lesions to the maximum score, which is equivalent to ulcers equal to or greater than 6 mm. Furthermore, an analysis was made of the effects of ASA, in the two formulations used, on the histopathological damage of the gastric mucosa after periodic acid Schiff/Alcian blue staining of the histological samples taken from the animals after the two treatments (FIG. 7).

Compound: CC(=O)[O][Pt]([NH2])([Cl])([Cl])([NH]C1CCCCC1)[O]C(C)=O [JM216, bis-acetato-ammine-dichloro-cyclohexylamine-platinum (IV)]
water solubility [1]: greater water solubility

Compound: collagen
effects of collagen on its own (thromboxane B2): no significant effects

Cmax ([2]; ASA 50 mg oral): 269 ± 85.4 ng/mL | AUC(0-t) ([2]; ASA 50 mg oral): 532 ± 123 ng·h/mL | Cmax ([2]; ASA 50 mg sublingual): 314 ± 89.5 ng/mL | AUC(0-t) ([2]; ASA 50 mg sublingual): 675 ± 75.6 ng·h/mL | Cmax ([2]; ASA 100 mg oral): 460 ± 73.2 ng/mL | Cmax ([2]; ASA 100 mg sublingual): 543 ± 68.3 ng/mL
Compound: CC(=O)Oc1ccccc1C(=O)O [ASA n.m., acetylsalicylic acid]
Ulcer index (gastric mucosa; listed as NM-ASA): 36.12 ± 4.2 | Ulcer index (gastric mucosa; listed as non-micronized ASA): 36.12±4.2 | histopathological damage of the gastric mucosa (gastric mucosa; periodic acid Schiff/Alcian blue staining): degeneration of cells of the gastric mucosa
